Article PMC9161374 (Science Translational Medicine, 2022)
Several values for one entry are separate records, joined by “and”; a condition that tells them apart may be missing. Identical values can stand only once. Like-named read-outs stand apart in the source and are kept apart here.

What was measured:
[1] = test system: SARS-CoV-2 (B.1) in Huh7 cells; experiment: Anti-SARS-CoV-2 activity in Huh7 cells (viral yield by qRT-PCR); type: cell-based; conditions: B.1, MOI 0.05, 48 h
[2] = CCK-8 cell viability assay; type: cell-based, African green monkey; conditions: African green monkey; Vero E6 cells, 48 h, CCK8
How it was run: (§1)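 Vero E6 cells, 20,000/well, exposed to compound at 0–200 μM (0, 0.01, 0.1, 1, 5, 10, 50, 75, 100, 200 μM) for 48 h; viability read by CCK-8 and expressed as percentage versus drug concentration, mean ± SD.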

Vero E6 cells = experiment: CCK-8 cell viability assay; type: cell-based, African green monkey; conditions: individual replicate values, Fig.S4
How it was run: as §1

[3] = test system: SARS-CoV-2 (Beta, B.1.351); experiment: microbe, parasite or virus in culture; type: cell-based; conditions: for % Inhibition: beta
[4] = test system: SARS-CoV-2 (Delta, B.1.617.2); experiment: microbe, parasite or virus in culture; type: cell-based; conditions: for % Inhibition: delta
[5] = test system: SARS-CoV-2 (Omicron, B.1.1.529); conditions: Omicon, Vero E6, replicates
[6] = Permeability and efflux ratio in Caco-2 cells; type: in vitro ADME; conditions: human
From the text: ATV019, and ATV020 in Caco-2 cells.
Compound Caco-2 AB/BA (Papp (10-6 cm/s)) a Efflux ratio

[7] = test system: SARS-CoV-2 replicon system (pBAC-SARS-CoV-2-Replicon-Luc); experiment: microbe, parasite or virus in culture; type: cell-based
SARS-CoV-2 (B.1) = experiment: Anti-SARS-CoV-2 activity in Vero E6 cells (viral yield by qRT-PCR); type: cell-based

SMILES: CC(C)C(=O)OC[C@H]1O[C@@](C#N)(c2ccc3c(N)ncnn23)[C@H](O)[C@@H]1O [ATV006]
- EC50 ([1]; Severe acute respiratory syndrome coronavirus 2, Huh-7, read-out: EC50 (Confidence 95%) in Huh7 cells): 1630 nM
- EC90 ([1]; Severe acute respiratory syndrome coronavirus 2, Huh-7, read-out: EC90 (Confidence 95%) in Huh7 cells): 1960 nM
- CC50 at 48 h [2]: 128000 nM
- cell viability (% of control) (Vero E6 cells; 0.01 μM compound, 0.01 µM): 93.4165 % of control and 118.52 % of control and 111.314 % of control
- cell viability (% of control) (Vero E6 cells; 0.1 μM compound, 0.1 µM): 114.92 % of control and 109.106 % of control and 122.304 % of control
- cell viability (% of control) (Vero E6 cells; 1 μM compound, 1 µM): 103.338 % of control and 92.7243 % of control and 89.4018 % of control
- cell viability (% of control) (Vero E6 cells; 2 μM compound, 2 µM): 94.6163 % of control and 92.5859 % of control and 102 % of control
- cell viability (% of control) (Vero E6 cells; 5 μM compound, 5 µM): 130.333 % of control and 131.994 % of control and 107.906 % of control
- cell viability (% of control) (Vero E6 cells; 10 μM compound, 10 µM): 124.057 % of control and 118.52 % of control and 118.981 % of control
- cell viability (% of control) (Vero E6 cells; 50 μM compound, 50 µM): 93.4165 % of control and 89.4165 % of control
- cell viability (% of control) (Vero E6 cells; 75 μM compound, 75 µM): 60.8815 % of control and 65.7193 % of control and 58.2133 % of control
- cell viability (% of control) (Vero E6 cells; 100 μM compound, 100 µM): 50.7027 % of control and 56.7073 % of control and 50.0144 % of control
- cell viability (% of control) (Vero E6 cells; 200 μM compound, 200 µM): 35.664 % of control and 47.0944 % of control and 42.1024 % of control
- EC50 ([3]; Severe acute respiratory syndrome coronavirus 2, Vero C1008, 48 h, read-out: EC50 in Vero E6 cells, SARS-CoV-2 (Beta, B.1.351)): 1130 nM
- inhibition at 0.01 µM ([3]; Severe acute respiratory syndrome coronavirus 2, Vero C1008, beta, 0.01 uM, Vero E6, replicates): 0%
- inhibition at 0.1 µM ([3]; Severe acute respiratory syndrome coronavirus 2, Vero C1008, beta, 0.1 uM, Vero E6, replicates): 0%
- inhibition at 0.25 µM ([3]; Severe acute respiratory syndrome coronavirus 2, Vero C1008, beta, 0.25 uM, Vero E6, replicates): 0%
- inhibition at 0.5 µM ([3]; Severe acute respiratory syndrome coronavirus 2, Vero C1008, beta, 0.5 uM, Vero E6, replicates): 0%
- inhibition at 1 µM ([3]; Severe acute respiratory syndrome coronavirus 2, Vero C1008, beta, 1 uM, Vero E6, replicates): 32.1%
- inhibition at 2 µM ([3]; Severe acute respiratory syndrome coronavirus 2, Vero C1008, beta, 2 uM, Vero E6, replicates): 99.6%
- inhibition at 5 µM ([3]; Severe acute respiratory syndrome coronavirus 2, Vero C1008, beta, 5 uM, Vero E6, replicates): 99.7%
- inhibition at 10 µM ([3]; Severe acute respiratory syndrome coronavirus 2, Vero C1008, beta, 10 uM, Vero E6, replicates): 99.9%
- inhibition at 50 µM ([3]; Severe acute respiratory syndrome coronavirus 2, Vero C1008, beta, 50 uM, Vero E6, replicates): 99.9%
- EC90 ([3]; Severe acute respiratory syndrome coronavirus 2, Vero C1008, read-out: EC90 (Confidence 95%), Vero-E6, Beta B.1.351): 1360 nM
- % Inhibition ([3]; 1 uM, Vero E6, replicates): 16.537%
- % Inhibition ([3]; 2 uM, Vero E6, replicates): 99.486%
- % Inhibition ([3]; 5 uM, Vero E6, replicates): 99.5312%
- % Inhibition ([3]; 10 uM, Vero E6, replicates): 99.9431%
- % Inhibition ([3]; 50 uM, Vero E6, replicates): 99.9484%
- EC50 ([4]; Severe acute respiratory syndrome coronavirus 2, Vero C1008, 48 h, read-out: EC50 in Vero E6 cells, SARS-CoV-2 (Delta, B.1.617.2)): 349 nM
- inhibition at 0.01 µM ([4]; Severe acute respiratory syndrome coronavirus 2, Vero C1008, delta, 0.01 uM, Vero E6, replicates): 0%
- inhibition at 0.1 µM ([4]; Severe acute respiratory syndrome coronavirus 2, Vero C1008, delta, 0.1 uM, Vero E6, replicates): 0%
- inhibition at 0.25 µM ([4]; Severe acute respiratory syndrome coronavirus 2, Vero C1008, delta, 0.25 uM, Vero E6, replicates): 13.4%
- inhibition at 0.5 µM ([4]; Severe acute respiratory syndrome coronavirus 2, Vero C1008, delta, 0.5 uM, Vero E6, replicates): 86.8%
- inhibition at 1 µM ([4]; Severe acute respiratory syndrome coronavirus 2, Vero C1008, delta, 1 uM, Vero E6, replicates): 94.7%
- inhibition at 2 µM ([4]; Severe acute respiratory syndrome coronavirus 2, Vero C1008, delta, 2 uM, Vero E6, replicates): 96.7%
- inhibition at 5 µM ([4]; Severe acute respiratory syndrome coronavirus 2, Vero C1008, delta, 5 uM, Vero E6, replicates): 95.5%
- inhibition at 10 µM ([4]; Severe acute respiratory syndrome coronavirus 2, Vero C1008, delta, 10 uM, Vero E6, replicates): 99.9%
- inhibition at 50 µM ([4]; Severe acute respiratory syndrome coronavirus 2, Vero C1008, delta, 50 uM, Vero E6, replicates): 99.9%
- EC90 ([4]; Severe acute respiratory syndrome coronavirus 2, Vero C1008, read-out: EC90 (Confidence 95%), Vero-E6, Delta B.1.617.2): 506 nM
- % Inhibition ([4]; 0.25 uM, Vero E6, replicates): 17.4307%
- % Inhibition ([4]; 0.5 uM, Vero E6, replicates): 86.6826%
- % Inhibition ([4]; 1 uM, Vero E6, replicates): 92.7523%
- % Inhibition ([4]; 2 uM, Vero E6, replicates): 95.2669%
- % Inhibition ([4]; 5 uM, Vero E6, replicates): 93.5585%
- % Inhibition ([4]; 10 uM, Vero E6, replicates): 99.4329%
- % Inhibition ([4]; 50 uM, Vero E6, replicates): 99.3835%
- % Inhibition ([5]; 0.069 uM): 43.9482% and 49.6397%
- % Inhibition ([5]; 0.208 uM): 71.5175% and 88.4612%
- % Inhibition ([5]; 0.625 uM): 99.4508% and 99.8921%
- % Inhibition ([5]; 2.5 uM): 99.9835% and 99.9391%
- % Inhibition ([5]; 5 uM): 99.9795% and 99.9931%
- % Inhibition ([5]; 10 uM): 99.9442%
- efflux ratio [6]: 1.7
- Papp A→B ([6]; AB): 0.51 ×10⁻⁶ cm/s
- Papp B→A ([6]; BA): 0.87 ×10⁻⁶ cm/s
- activity in the replicon system in comparison with parent GS-441524 [7]: improved the inhibitory activities
- EC50 ([7]; Severe acute respiratory syndrome coronavirus 2, HEK-293T, 60 h, read-out: EC50 (Confidence 95%), replicon): 521 nM
- EC90 ([7]; Severe acute respiratory syndrome coronavirus 2, HEK-293T, 60 h, read-out: EC90 (Confidence 95%), replicon): 3220 nM
- % Inhibition (SARS-CoV-2 (B.1); 1 μM, replicates, sheet Fig.S3): 3.722%
- % Inhibition (SARS-CoV-2 (B.1); 2 μM, replicates, sheet Fig.S3): 87.0049%
- % Inhibition (SARS-CoV-2 (B.1); 5 μM, replicates, sheet Fig.S3): 91.6411%
- % Inhibition (SARS-CoV-2 (B.1); 10 μM, replicates, sheet Fig.S3): 90.9393%
- % Inhibition (SARS-CoV-2 (B.1); B.1, 1 uM, Vero E6, replicates, 1 µM): 3.249%
- % Inhibition (SARS-CoV-2 (B.1); B.1, 2 uM, Vero E6, replicates, 2 µM): 99.386%
- % Inhibition (SARS-CoV-2 (B.1); B.1, 5 uM, Vero E6, replicates, 5 µM): 99.8149%
- % Inhibition (SARS-CoV-2 (B.1); B.1, 10 uM, Vero E6, replicates, 10 µM): 99.9851%
- % Inhibition (SARS-CoV-2 (B.1); B.1, 50 uM, Vero E6, replicates, 50 µM): 99.991%
- inhibition at 0.1 µM (SARS-CoV-2 (B.1); Severe acute respiratory syndrome coronavirus 2, Vero C1008, 0.1 μM, replicates, sheet Fig.S3): 0%
- inhibition at 0.5 µM (SARS-CoV-2 (B.1); Severe acute respiratory syndrome coronavirus 2, Vero C1008, 0.5 μM, replicates, sheet Fig.S3): 0%
- inhibition at 2 µM (SARS-CoV-2 (B.1); Severe acute respiratory syndrome coronavirus 2, Vero C1008, 2 μM, replicates, sheet Fig.S3): 87.7%
- inhibition at 5 µM (SARS-CoV-2 (B.1); Severe acute respiratory syndrome coronavirus 2, Vero C1008, 5 μM, replicates, sheet Fig.S3): 93.3%
- inhibition at 10 µM (SARS-CoV-2 (B.1); Severe acute respiratory syndrome coronavirus 2, Vero C1008, 10 μM, replicates, sheet Fig.S3): 93.2%
- inhibition at 0.01 µM (SARS-CoV-2 (B.1); Severe acute respiratory syndrome coronavirus 2, Vero C1008, B.1, 0.01 uM, Vero E6, replicates): 0%
- inhibition at 0.1 µM (SARS-CoV-2 (B.1); Severe acute respiratory syndrome coronavirus 2, Vero C1008, B.1, 0.1 uM, Vero E6, replicates): 0%
- inhibition at 0.25 µM (SARS-CoV-2 (B.1); Severe acute respiratory syndrome coronavirus 2, Vero C1008, B.1, 0.25 uM, Vero E6, replicates): 0%
- inhibition at 0.5 µM (SARS-CoV-2 (B.1); Severe acute respiratory syndrome coronavirus 2, Vero C1008, B.1, 0.5 uM, Vero E6, replicates): 0%
- inhibition at 1 µM (SARS-CoV-2 (B.1); Severe acute respiratory syndrome coronavirus 2, Vero C1008, B.1, 1 uM, Vero E6, replicates): 3.85%
- inhibition at 2 µM (SARS-CoV-2 (B.1); Severe acute respiratory syndrome coronavirus 2, Vero C1008, B.1, 2 uM, Vero E6, replicates): 97.4%
- inhibition at 5 µM (SARS-CoV-2 (B.1); Severe acute respiratory syndrome coronavirus 2, Vero C1008, B.1, 5 uM, Vero E6, replicates): 99.8%
- inhibition at 10 µM (SARS-CoV-2 (B.1); Severe acute respiratory syndrome coronavirus 2, Vero C1008, B.1, 10 uM, Vero E6, replicates): 99.9%
- inhibition at 50 µM (SARS-CoV-2 (B.1); Severe acute respiratory syndrome coronavirus 2, Vero C1008, B.1, 50 uM, Vero E6, replicates): 100%
- EC90 (SARS-CoV-2 (B.1); Severe acute respiratory syndrome coronavirus 2, Vero C1008, read-out: EC90 (Confidence 95%)): 2180 nM
- EC50 (SARS-CoV-2 (B.1); Severe acute respiratory syndrome coronavirus 2, Vero C1008, MOI 0.05, 48 h): 1360 nM
